Here are results for 18 molecules from patent US8455475B2 (Gruenenthal GmbH, priority 2009, dated 2013).

Molecules are shown by their SMILES.

In this assay the target is T1, rat B1R (bradykinin receptor 1) (Rattus norvegicus, UniProt P97583).
T1 construct: expressed in transfected cells; host or cells: CHO K1 cells
T1 sequence (P97583 1-337): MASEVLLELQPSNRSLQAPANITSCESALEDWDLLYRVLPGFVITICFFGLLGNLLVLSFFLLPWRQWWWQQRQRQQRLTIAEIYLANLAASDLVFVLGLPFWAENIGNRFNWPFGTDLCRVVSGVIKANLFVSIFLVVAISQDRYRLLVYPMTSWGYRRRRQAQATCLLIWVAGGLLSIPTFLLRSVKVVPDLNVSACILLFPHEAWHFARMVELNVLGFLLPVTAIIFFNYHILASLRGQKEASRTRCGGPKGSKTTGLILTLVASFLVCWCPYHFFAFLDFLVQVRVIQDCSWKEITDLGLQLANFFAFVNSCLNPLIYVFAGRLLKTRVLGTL
In words: FLIPR Ca2+ assay (Fluo-4) on CHO K1 cells stably transfected with the B1R gene of the rat (rB1R cells): % inhibition at 10 μM / IC50, agonist Des-Arg9-bradykinin. Particulars: CHO-K1, rat B1R. Type of assay: cell-based. As for the experimental part: The agonistic or antagonistic action of substances can be quantified on the bradykinin receptor 1 (B1R) of the human and rat species with ectopically expressing cell lines (CHO K1 cells) and with the aid of a Ca^2+-sensitive dyestuff (Fluo-4) in a fluorescent imaging plate reader (FLIPR). The figure in % activation is based on the Ca^2+ signal after addition of Lys-Des-Arg^9-bradykinin (0.5 nM) or Des-Arg^9-bradykinin (100 nM). Antagonists lead to a suppression of the Ca^2+ inflow after addition of the agonist. % inhibition compared with the maximum achievable inhibition is stated.
The agonistic or antagonistic action of substances can be determined on the bradykinin receptor 1 (B1R) of the human and rat species with the following assay. In accordance with this assay, the Ca^2+ inflow through the channel is quantified with the aid of a Ca^2+-sensitive dyestuff (type Fluo-4, Molecular Probes Europe BV, Leiden, Holland) in a fluorescent imaging plate reader (FLIPR, Molecular Devices, Sunnyvale, USA).
Chinese hamster ovary cells (CHO K1 cells) transfected stably with the human B1R gene (hB1R cells) or the B1R gene of the rat (rB1R cells) are used. For functional studies, these cells are plated out on black 96-well plates with a clear base (BD Biosciences, Heidelberg, Germany or Greiner, Frickenhausen, Germany) in a density of 20,000-35,000 cells/well. The cells are left overnight at 37° C. and 5% CO2 in culture medium (hB1R cells: Nutrient Mixture Ham's F12, Gibco Invitrogen GmbH, Karlsruhe, Germany or DMEM, Sigma-Aldrich, Taufkirchen, Germany; rB1R cells: D-MEM/F12, Gibco Invitrogen GmbH, Karlsruhe, Germany) with 10 vol. % FBS (foetal bovine serum, Gibco Invitrogen GmbH, Karlsruhe, Germany or PAN Biotech GmbH, Aidenbach, Germany). On the following day, the cells are loaded for 60 min at 37° C. with 2.13 μM Fluo-4 (Molecular Probes Europe BV, Leiden Holland) in HBSS buffer (Hank's buffered saline solution, Gibco Invitrogen GmbH, Karlsruhe, Germany) with 2.5 mM probenecid (Sigma-Aldrich, Taufkirchen, Germany) and 10 mM HEPES (Sigma-Aldrich, Taufkirchen, Germany). The plates are then washed 2× with HBSS buffer, and HBSS buffer which additionally contains 0.1% BSA (bovine serum albumin; Sigma-Aldrich, Taufkirchen, Germany), 5.6 mM glucose and 0.05% gelatine (Merck KGaA, Darmstadt, Germany) is added. After a further incubation of 20 minutes at room temperature, the plates are inserted into the FLIPR for the Ca^2+ measurement. Alternatively, the plates are washed with buffer A (15 mM HEPES, 80 mM NaCl, 5 mM KCl, 1.2 mM CaCl2, 0.7 mM MgSO4, 2 g/l glucose, 2.5 mM probenecid), buffer A is added and the plates are loaded with 2.5 μM Fluo-4 and 0.025% Pluronic F127 (Sigma-Aldrich, Taufkirchen, Germany). Thereafter, the cells are washed 2× with buffer A and incubated for 30 minutes at room temperature with buffer A, which additionally contains 0.05% BSA and 0.05% gelatine, and thereafter inserted into the FLIPR for the Ca^2+ measurement. The Ca^2+-dependent fluorescence is measured here before and after addition of substances (λex=488 nm, λem=540 nm). Quantification is by measurement of the highest fluorescence intensity (FC, fluorescence counts) over time.
The FLIPR protocol consists of 2 additions of substance. Test substances (10 μM) are first pipetted on to the cells and the Ca^2+ inflow is compared with the control (hB1R: Lys-Des-Arg^9-bradykinin>=50 nM; rB1R: Des-Arg^9-bradykinin 10 μM). This gives the result in % activation based on the Ca^2+ signal after addition of Lys-Des-Arg^9-bradykinin (>=50 nM) or Des-Arg^9-bradykinin (10 μM). After incubation for 10-20 minutes, Lys-Des-Arg^9-bradykinin (hB1R) or Des-Arg^9-bradykinin (rB1R) in the concentration of the EC80 is applied and the inflow of Ca^2+ is likewise determined. Antagonists lead to a suppression of the Ca^2+ inflow. % inhibition compared with the maximum achievable inhibition is calculated.
For determination of the IC50 value, the substances are added in various concentrations. […]
A word on the inhibition: it is the drop in the measured response relative to a control, in per cent. In the case of `CC1(C)CC(NS(=O)(=O)c2c(Cl)cccc2Cl)c2cc(C(=O)N3CCC4(CC3)CCN(c3ccncc3)CC4)ccc21` (stereo not drawn) [IND_CC-332, 2,6-Dichloro-N-[3,3-dimethyl-6-(3-pyridin-4-yl-3,9-diazaspiro[5.5]undecane-9-carbonyl)-1,2-dihydro-inden-1-yl]-benzenesulfonic acid amide], the inhibition at 10 µM worked out at 97%.

On to `O=C(c1ccc2c(c1)C(NS(=O)(=O)c1c(Cl)cccc1Cl)CC2)N1CCC2(CCN(c3ccncc3)CC2)C1` (stereo not drawn) [IND_CC-333, 2,6-Dichloro-N-[6-(8-pyridin-4-yl-2,8-diazaspiro[4.5]decane-2-carbonyl)-2,3-dihydro-1H-inden-1-yl]-benzenesulfonic acid amide], for which the inhibition at 10 µM was determined as 92%.

`CC1(C)Cc2ccc(C(=O)N3CCC4(CC3)CCN(c3ccncc3)CC4)cc2C1NS(=O)(=O)c1ccc(Cl)cc1Cl` (stereo not drawn) [IND_CC-334, 2,4-Dichloro-N-[2,2-dimethyl-6-(9-pyridin-4-yl-3,9-diazaspiro[5.5]undecane-3-carbonyl)-1,3-dihydro-inden-1-yl]-benzenesulfonic acid amide]: the inhibition at 10 µM was 90%.

In the case of `CC1(C)CC(NS(=O)(=O)c2ccc(Cl)cc2Cl)c2cc(C(=O)N3CCC4(CC3)CCN(c3ccncc3)CC4)ccc21` (stereo not drawn) [IND_CC-335, 2,4-Dichloro-N-[3,3-dimethyl-6-(3-pyridin-4-yl-3,9-diazaspiro[5.5]undecane-9-carbonyl)-1,2-dihydro-inden-1-yl]-benzenesulfonic acid amide], the inhibition at 10 µM amounted to 102%.

As for `CC1(C)Cc2ccc(C(=O)N3CCC4(CC3)CCN(c3ccncc3)CC4)cc2C1NS(=O)(=O)c1ccccc1Cl` (stereo not drawn) [IND_CC-336, 2-Chloro-N-[2,2-dimethyl-6-(9-pyridin-4-yl-3,9-diazaspiro[5.5]undecane-3-carbonyl)-1,3-dihydro-inden-1-yl]-benzenesulfonic acid amide], the inhibition at 10 µM was 103%.

Take `CC1(C)CC(NS(=O)(=O)c2ccccc2Cl)c2cc(C(=O)N3CCC4(CC3)CCN(c3ccncc3)CC4)ccc21` (stereo not drawn) [IND_CC-337, 2-Chloro-N-[3,3-dimethyl-6-(3-pyridin-4-yl-3,9-diazaspiro[5.5]undecane-9-carbonyl)-1,2-dihydro-inden-1-yl]-benzenesulfonic acid amide]: the inhibition at 10 µM was 104%.

`Cc1cc(F)ccc1S(=O)(=O)NC1c2cc(C(=O)N3CCC4(CC3)CCN(c3ccncc3)CC4)ccc2CC1(C)C` (stereo not drawn) [IND_CC-338, N-[2,2-Dimethyl-6-(9-pyridin-4-yl-3,9-diazaspiro[5.5]undecane-3-carbonyl)-1,3-dihydro-inden-1-yl]-4-fluoro-2-methyl-benzenesulfonic acid amide]: the inhibition at 10 µM was 103%.

In the case of `Cc1cc(F)ccc1S(=O)(=O)NC1CC(C)(C)c2ccc(C(=O)N3CCC4(CC3)CCN(c3ccncc3)CC4)cc21` (stereo not drawn) [IND_CC-339, N-[3,3-Dimethyl-6-(3-pyridin-4-yl-3,9-diazaspiro[5.5]undecane-9-carbonyl)-1,2-dihydro-inden-1-yl]-4-fluoro-2-methyl-benzenesulfonic acid amide], the inhibition at 10 µM worked out at 103%.

`CC1(C)CC(NS(=O)(=O)c2cccc(C(F)(F)F)c2)c2cc(C(=O)N3CCC4(CC3)CCN(c3ccncc3)CC4)ccc21` (stereo not drawn) [IND_CC-340, N-[3,3-Dimethyl-6-(3-pyridin-4-yl-3,9-diazaspiro[5.5]undecane-9-carbonyl)-1,2-dihydro-inden-1-yl]-3-(trifluoromethyl)-benzenesulfonic acid amide]: the inhibition at 10 µM was 101%.

For the molecule `CC1(C)Cc2ccc(C(=O)N3CCC4(CC3)CCN(c3ccncc3)CC4)cc2C1NS(=O)(=O)c1cccc(C(F)(F)F)c1` (stereo not drawn) [IND_CC-341, N-[2,2-Dimethyl-6-(9-pyridin-4-yl-3,9-diazaspiro[5.5]undecane-3-carbonyl)-1,3-dihydro-inden-1-yl]-3-(trifluoromethyl)-benzenesulfonic acid amide], the inhibition at 10 µM is 87%.

`O=C(c1ccc2c(c1)C(NS(=O)(=O)c1cccc(C(F)(F)F)c1)CC2)N1CCC2(CCN(c3ccncc3)CC2)C1` (stereo not drawn) [IND_CC-342, N-[6-(8-Pyridin-4-yl-2,8-diazaspiro[4.5]decane-2-carbonyl)-2,3-dihydro-1H-inden-1-yl]-3-(trifluoromethyl)-benzenesulfonic acid amide]: the inhibition at 10 µM was 103%.

As to `CN(C1CCc2ccc(C(=O)N3CCC4(CC3)CCN(c3ccncc3)CC4)cc21)S(=O)(=O)c1cc(Cl)ccc1Cl` (stereo not drawn) [IND_CC-344, 2,5-Dichloro-N-methyl-N-[6-(9-pyridin-4-yl-3,9-diazaspiro[5.5]undecane-3-carbonyl)-2,3-dihydro-1H-inden-1-yl]-benzenesulfonic acid amide], the inhibition at 10 µM was determined as 99%.

`Cc1ccccc1C(=O)N(C)C1CCc2ccc(C(=O)N3CCC4(CC3)CCN(c3ccncc3)CC4)cc21` (stereo not drawn) [IND_CC-345, N,2-Dimethyl-N-[6-(9-pyridin-4-yl-3,9-diazaspiro[5.5]undecane-3-carbonyl)-2,3-dihydro-1H-inden-1-yl]-benzamide]: the inhibition at 10 µM was found to be 105%.

`Cc1ccccc1C(=O)NC1CCc2ccc(C(=O)N3CCC4(CC3)CCN(c3ccncc3)CC4)cc21` (stereo not drawn) [IND_CC-346, 2-Methyl-N-[6-(9-pyridin-4-yl-3,9-diazaspiro[5.5]undecane-3-carbonyl)-2,3-dihydro-1H-inden-1-yl]-benzamide]: the inhibition at 10 µM is 104%.

In the case of `Cc1ccccc1C(=O)NC1CCc2ccc(C(=O)N3CCC4(CC3)CCN(c3ccncc3)C4)cc21` (stereo not drawn) [IND_CC-347, 2-Methyl-N-[6-(2-pyridin-4-yl-2,8-diazaspiro[4.5]decane-8-carbonyl)-2,3-dihydro-1H-inden-1-yl]-benzamide], the inhibition at 10 µM stood at 106%.

Consider `CN(C1CCc2ccc(C(=O)N3CCC4(CC3)CCN(c3ccncc3)CC4)cc21)S(=O)(=O)Cc1ccccc1F` (stereo not drawn) [IND_CC-348, 1-(2-Fluorophenyl)-N-methyl-N-[6-(9-pyridin-4-yl-3,9-diazaspiro[5.5]undecane-3-carbonyl)-2,3-dihydro-1H-inden-1-yl]-methanesulfonic acid amide], for which the inhibition at 10 µM stood at 102%.

For the molecule `O=C(c1ccc2c(c1)C(NS(=O)(=O)Cc1ccccc1F)CC2)N1CCC2(CC1)CCN(c1ccncc1)CC2` (stereo not drawn) [IND_CC-349, 1-(2-Fluorophenyl)-N-[6-(9-pyridin-4-yl-3,9-diazaspiro[5.5]undecane-3-carbonyl)-2,3-dihydro-1H-inden-1-yl]-methanesulfonic acid amide], the inhibition at 10 µM turned out to be 105%.

On to `O=C(c1ccc2c(c1)C(NS(=O)(=O)Cc1ccccc1F)CC2)N1CCC2(CC1)CCN(c1ccncc1)C2` (stereo not drawn) [IND_CC-350, 1-(2-Fluorophenyl)-N-[6-(2-pyridin-4-yl-2,8-diazaspiro[4.5]decane-8-carbonyl)-2,3-dihydro-1H-inden-1-yl]-methanesulfonic acid amide], for which the inhibition at 10 µM was found to be 106%.
